Source: patent US6590140B1, “Metal-regulated transporters and uses therefor” (Trustees of Dartmouth College, priority 1996, dated 2003)
“Also recorded” adds a separate entry of the source.

Legend:
IRT1 = molecular target: T1, IRT1 (Arabidopsis thaliana, UniProt Q38856); experiment: 55Fe uptake in fet3 fet4 yeast expressing IRT1; format: cell-based; conditions: for effect on the rate of iron uptake by IRT1: 10 μM metal, 10 times the radiolabeled iron, Fe(II) with 1 mM ascorbate, 10 min
T1 construct: contain a single 1017 bp open reading frame capable of encoding a polypeptide of 339 amino acids; expressed in transfected cells; host or cells: S. cerevisiae fet3 fet4 strain DEY1453 carrying pIRT-1 (pFL61 library vector, phosphoglycerate kinase promoter)
T1 sequence (Q38856 9-347 limits assumed): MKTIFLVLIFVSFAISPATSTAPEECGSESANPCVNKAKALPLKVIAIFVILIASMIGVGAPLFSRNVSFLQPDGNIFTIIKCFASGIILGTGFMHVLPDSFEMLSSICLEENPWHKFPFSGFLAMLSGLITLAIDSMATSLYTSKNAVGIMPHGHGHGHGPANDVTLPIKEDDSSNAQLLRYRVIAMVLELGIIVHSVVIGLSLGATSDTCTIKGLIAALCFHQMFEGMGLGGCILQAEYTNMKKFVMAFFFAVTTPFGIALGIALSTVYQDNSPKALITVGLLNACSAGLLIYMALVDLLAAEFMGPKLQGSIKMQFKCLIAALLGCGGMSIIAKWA
Protocol: Iron uptake assays using ^55FeCl3 (Amersham, Arlington Heights, Ill.) were performed as described (Eide, D. et al. (1992) J. Biol. Chem. 267: 20774-20781) except that MGN (10 mM Mes/2% glucose/1 mM nitrilotriacetic acid, pH 6.1) was used for the assay buffer. Where noted, 1 mM sodium ascorbate was added to reduce Fe(III) to Fe(II). Stock solutions of the chloride salt of each metal (except for iron) were prepared in water at a concentration of 100 mM and diluted into MGN to a final concentration of 10 μM before addition of the cells. The ^56FeCl3 stock was 50 mM prepared in 0.1 M HCl. The statistical significance of differences in values relative to controls was determined using STATVIEW software (Abacus Concepts, Berkeley, Calif.). Data was subjected to one-way analysis of variance (ANOVA) followed by a Scheffe's test.
To determine if IRT1 encodes an iron transporter, ^55Fe uptake rates were examined in a fet3 fet4 strain expressing IRT1. Little or no uptake was detected at 0° C. for either IRT1-expressing or untransformed control cells (FIG. 2A). The fet3 fet4 mutant strain DEY1453 (circles) and DEY1453 transformed with pIRT-1 (squares) were grown to exponential phase in SD glucose and assayed for iron uptake with ^55Fe. (A) Time- and temperature-dependence of iron accumulation assayed in MGN with 1 mM ascorbate and 5 μM ^55FeCl3 assayed at 30° C. (open symbols) or 0° C. (solid symbols). The dashed line marked with open triangles represents the IRT1-dependent accumulation, i.e., the accumulation of iron by the untransformed strain at 30° C. subtracted from the accumulation of the pIRT-1-bearing strain at 30° C. […] The IRT1-dependent rate was ≈3-fold higher than the control uptake rate. No increased uptake was apparent in strains bearing either of two randomly selected clones from the library, indicating the dependence of these uptake effects on expression of IRT1. The iron uptake activity dependent on IRT1 expression was also concentration-dependent and saturable (FIG. 2B). The same strains as in A were assayed for iron uptake rates for 10 min over a range of concentrations. The dashed lines marked with open triangles represents the IRT1-dependent uptake rate, i.e., background uptake rate of the untransformed strain subtracted from the corresponding rate of the pIRT-1-bearing strains. (Inset) Eadie-Hofstee plot of the IRT1-dependent uptake data. Each point represents the mean of three experiments each performed in duplicate. The standard deviation within each experiment was less that 20% of the corresponding mean.
The experiments described above were conducted with iron supplied as Fe(II), i.e., in the presence of ascorbate, an agent capable of reducing Fe(III) to Fe(II). To determine if Fe(II) is the preferred substrate over Fe(III), assays were carried out in the absence of ascorbate where iron is supplied to the cells as Fe(III). […] The fet3 fet4 mutant strain DEY1453 and DEY1453 transformed with pIRT-1 were grown to exponential phase is SD glucose and assayed for iron uptake with 1 μM FeCl3 in MGN for 10 min. The values shown are the IRT1-dependent rates, i.e., the untransformed strain control values were subtracted from the DEY1453 pIRT-1 values and represent the means of four replicates. The asterisks indicate significant of differences from the control values (P<0.05). Assays were performed in the absence [Fe(III)] or presence [Fe(II)] of 1 mM ascorbate. […] Although yeast are capable of reducing Fe(III) to Fe(II) through the action of plasma membrane Fe(III) reductases, this rate of cell-mediated reduction is slower than reduction by ascorbate and therefore may be rate-limiting for IRT1-dependent uptake. To assess if metals other than iron are potential substrates for IRT1, several transition metals were tested for their ability to inhibit accumulation of iron in IRT1-expressing cells (FIG. 3B). Assays were conducted in the absence (−) or presence of 10 μM metal. […]

[1] = molecular target: T2, low affinity zinc uptake system (Zrt2p) (Saccharomyces cerevisiae, UniProt Q12436); format: cell-based
T2 construct: endogenous in cells; host or cells: S. cerevisiae ZHY1 (zrt1::LEU2) and zinc-replete DY1457; some values come from ZHY1 carrying pMC4 (multicopy genomic ZRT2) or pOE2 (ZRT2 ORF under GAL1)
T2 sequence (Q12436 whole entry): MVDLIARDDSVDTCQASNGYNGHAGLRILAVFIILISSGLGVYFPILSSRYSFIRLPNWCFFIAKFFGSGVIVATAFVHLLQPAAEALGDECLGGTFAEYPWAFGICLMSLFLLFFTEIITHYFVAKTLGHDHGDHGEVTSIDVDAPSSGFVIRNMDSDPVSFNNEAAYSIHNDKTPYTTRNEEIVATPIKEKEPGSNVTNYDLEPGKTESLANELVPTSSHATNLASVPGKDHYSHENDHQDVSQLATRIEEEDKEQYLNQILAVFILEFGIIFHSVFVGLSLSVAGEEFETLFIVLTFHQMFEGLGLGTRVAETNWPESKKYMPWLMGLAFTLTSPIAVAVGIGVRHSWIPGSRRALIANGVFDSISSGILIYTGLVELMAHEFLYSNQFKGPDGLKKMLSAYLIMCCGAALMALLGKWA
Protocol: (§1) Zinc uptake assays were performed as described previously for iron uptake (Eide et al. J. Biol. Chem. 267:20774-20781) except that ^65ZnCl2 (Amersham Corp., Arlington Heights, Ill.) and LZM-EDTA were substituted for ^59FeCl3 and LIM-EDTA. Cells were incubated at 30° C. with ^65Zn for five minutes, filtered, and washed with 10 ml ice-cold SSW. Cell-associated radioactivity was measured by liquid scintillation. Kinetic values were derived using KinetAsyst software (IntelliKinetics, Princeton, N.J.). Zinc accumulation was measured in cells grown in LZM medium supplemented with […] ^65Zn plus nonradioactive zinc to the indicated final concentration. Aliquots (0.5 ml) were filtered, washed with 10 ml ice-cold SSW, and counted by liquid scintillation. b-galactosidase activity was assayed as described by Guarente (Guarante, L. (1983) Methods Enzymol101:181-191).
(§2) Zinc uptake assays were performed as described previously for iron uptake (Eide et al. (1992) J. Biol. Chem. 267:20774-20781) except that ^65ZnCl2 (Amersham) and LZM-EDTA were substituted for ^59FeCI3 and LIM-EDTA, respectively. Cells were incubated for 5 minutes in LZM-EDTA plus the indicated concentration of ^65Zn, collected on glass fiber filters (Schleicher and Schuell), washed with 10 ml ice-cold SSW (1 mM EDTA, 20 mM trisodium citrate, 1 mM KH2PO4, 1 mM CaCl2, 5 mM MgSO4, 1 mM NaCl pH 4.2), and cell-associated radioactivity was measured by liquid scintillation counting. Cells were starved for glucose by incubating them in LZM-EDTA prepared without glucose for one hour at 30° C. prior to assay. Michaelis-Menten kinetic values were determined using […] software (Intellikinetics, Princeton, N.J.). Stock solutions of the chloride salts of Co, Cu, Mg, Mn, and Ni were prepared in distilled water at a concentration of 100 mM. The nonradioactive ZnCl2 stock was prepared at 100 mM in 0.02 N HCl and the FeCl3 stock was prepared at 50 mM in 0.1 N HCl. The statistical significance of the differences of values relative to controls was determined with one-way analysis of variance (ANOVA) followed by a Dunnett multiple comparison test. β-galactosidase activity was assayed in cells harvested at an OD600 of 0.5-2.0 as described by Guarente (Guarente, L. (1983) Methods Enzymol. 101:181-191) and activity is expressed as the change in absorbance at 420 nm×1000 divided by (min×ml of culture used×OD600 of the culture). Cell-associated zinc was measured in parallel cultures supplemented with tracer amounts of ^65Zn (10 μM) and nonradioactive zinc to the indicated final concentration. Aliquots (0.5 ml) were filtered, washed with 10 ml ice-cold SSW, and radioactivity measured by liquid scintillation.
(§3) To determine if ZRT1 plays a role in zinc uptake, the biochemical properties of this process in wild type cells were first characterized. […] Wild type (FIG. 10, DY1457, squares) and zrt1 mutant (FIG. 10, ZHY1, circles) cells were grown to exponential phase in zinc-limited (open symbols, FIG. 10) and zinc-replete (FIG. 10, closed symbols) media and assayed for zinc uptake rate over a range ZnSO4 concentrations. Zinc-limited media was LZM+10 μM zinc for the wild type and LZM+500 μM zinc for the mutant. Zinc-replete conditions were LZM+1000 μM for both strains. ZHY1(pOE1) cells (FIG. 10, triangles) were grown in zinc-replete SDgal medium.
(§4) Mutant zrt1 (ZHY1) cells were grown in LZM supplemented with 1 mM ZnCl2. Cells were incubated with 10 μM ^65Zn for the indicated times at either […]

[2] = molecular target: T3, high affinity zinc uptake system (Zrt1p) (Saccharomyces cerevisiae, UniProt P32804); experiment: 65Zn uptake assay in yeast, high affinity zinc uptake system; format: cell-based
T3 construct: endogenous in cells; host or cells: S. cerevisiae DY1457 (wild type, zinc-limited) and ZHY2 (zrt2); one kinetic value comes from ZHY1 carrying pOE1 (ZRT1 ORF under the GAL1 promoter)
T3 sequence (P32804 whole entry): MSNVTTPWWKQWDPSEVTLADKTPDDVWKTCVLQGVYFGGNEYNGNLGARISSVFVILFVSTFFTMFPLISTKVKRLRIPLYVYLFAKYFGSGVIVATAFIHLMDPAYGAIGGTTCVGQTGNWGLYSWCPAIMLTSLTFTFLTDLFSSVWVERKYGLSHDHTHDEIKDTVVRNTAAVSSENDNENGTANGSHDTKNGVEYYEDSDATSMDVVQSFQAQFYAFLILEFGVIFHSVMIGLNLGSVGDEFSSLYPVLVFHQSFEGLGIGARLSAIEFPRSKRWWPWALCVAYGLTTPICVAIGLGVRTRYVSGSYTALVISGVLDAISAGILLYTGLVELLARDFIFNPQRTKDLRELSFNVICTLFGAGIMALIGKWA
Protocol: as §1, §2, §3, §4

zrt1 mutant (ZHY1) cells = format: cell-based, Saccharomyces cerevisiae; conditions: 500 μM metal added to iron-limiting medium LIM (1 mM EDTA)
Protocol: Strains used were DY1457 (MATα ade6 can1 his3 leu2 trp1 ura3) and ZHY1 (MaTα ade6 can1 his3 leu2 trp1 ura3 zrt1:: LEU2). Yeast were grown in standard culture media (SD, YPD) (Eide, D., Davis-Kaplan S., Jordan, I., Sipe, D., and Kaplan, J. (199: 2) J. Biol. Chem. 267, 20774-20781) supplemented with necessary auxotrophic requirements and either 2% glucose or 2% galactose. A zinc-limiting medium (LZM) was prepared in the same manner as LIM (Eide and Guarenete (1992) J. Gen. Microbiol. 138:347-354) except that […]. Cell number in liquid cultures was determined by measuring the optical density of cell suspensions at 600 nm (A600) and converting to cell number with a standard curve.
Strains used were DY1457 (MATα ade6 can1 his3 leu2 trp1 ura3), ZHY1 (AMTα ade6 can1 his3 leu2 trp1 ura3 zrt1::LEU2), ZHY2 (MATα ade6 can1 his3 leu2 trp1 ura3 zrt2::HIS3), and ZHY3 (MATα ade6 can1 his3 leu2 trp1 ura3 zrt1::LEU2 zrt2::HIS3). Yeast were grown in YP or SD media (Sherman et al. (1986) Methods in Yeast Genetics, Cold Spring Harbor Laboratory, Cold Spring Harbor, N.Y.) supplemented with necessary auxotrophic requirements and either 2% glucose or 2% galactose. Zinc-limiting YP and SD agar plates contained either bathophenanthroline disulfonate (BPS, 200 μM) or EDTA (1 mM), respectively. A liquid zinc-limiting medium (low zinc medium, LZM) was prepared in the same manner as low iron medium (LIM) (Eide and Guarente (1992) J. Gen. Microbiol. 138:347-354) except that the […]. LZM is similar in composition to SD medium with two modifications essential to controlling zinc availability. First, 1 mM EDTA is added to provide buffering for the concentration of free metal ions. Second, the medium is pH-buffered at 4.2 with 20 mM citrate to prevent pH changes that could alter the metal binding ability of EDTA. LZM was also prepared without EDTA ([…]) which is less zinc-limiting because the predominant chelator in this medium, citrate, binds zinc with less affinity than does EDTA. The concentrations of free (i.e. unchelated) zinc were calculated using MAXCHELATOR software (Chris Patton, Stanford University). Cell number in liquid cultures was determined by measuring the absorbance of cell suspensions at 600 nm (OD600) and converting to cell number with a standard curve.
To examine the function of ZRT1, a disruption mutation, zrt1::LEU2, was constructed by inserting the LEU2 gene into the center of ZRT1 (FIG. 6). This zrt1 disruption allele was then introduced into a haploid yeast strain. […] Because of the high EDTA concentration in LIM (1 mM), this medium is expected to have low available levels of other metals that are bound tightly by this chelator. Supplements of other metals were tested for improved growth of the zrt1 mutant in LIM. […] To study this effect further, a low zinc medium, LZM, was developed in which cell growth could be limited by zinc deficiency and the growth response of the wild type and zrt1 mutant strains to increasing levels of supplemented zinc was examined. Wild type (DY1457, squares) and zrt1 mutant (ZHY1, circles) cells were inoculated into LZM supplemented with the indicated amount of ZnSO4 and grown for 16 hours prior to cell number determination. […] Mutant zrt1 cells attained this same maximum number of cell divisions only with zinc supplements of 750 μM or more, i.e. a 75-fold increase in the zinc requirement of the zrt1 mutant compared to the wild type.
To further assess the role of the low affinity system as a source of zinc, growth of wild type and zrt2 cells in a zinc-limiting medium, LZM, supplemented with increasing amounts of zinc was examined. The same strains as in FIG. 15 were grown for six hours in SD glucose medium, harvested, washed in LZM, and reinoculated into either LZM (FIG. 15A) or LZM-EDTA (FIG. 15B) supplemented with the indicated concentrations of ZnCl2 ([Zn]T). […]

[3] = 1 mM ascorbate, control experiments

## [Cl][Cd][Cl] [Cd]
IRT1
  inhibition of IRT1-mediated Fe(II) uptake in yeast (summary statement): inhibitors of IRT1-mediated Fe(II) uptake; also recorded: strongly inhibited
  effect on the rate of iron uptake by IRT1: potent inhibitors

## [K+] [K^+]
[1]; high extracellular K+ (100 mM)
  inhibition of zinc uptake by the low affinity system: not inhibited

## [Cl-].[Cl-].[Mg+2] [Mg]
[2]; 20 μM added metal, 2 μM 65Zn, five minutes, zinc-limited wild type
  effect on zinc uptake by the high affinity system: unaffected
[1]; 200 μM added metal, 20 μM 65Zn, five minutes, zrt1 mutant cells
  effect on zinc uptake by the low affinity system: did not diminish zinc uptake
zrt1 mutant (ZHY1) cells
  effect on zrt1 growth in LIM: no effect

## [Cl-].[Cl-].[Sr+2] [Sr]
IRT1
  effect on the rate of iron uptake by IRT1: no significant effect

## O=C1O[C@H]([C@@H](O)CO)C([O-])=C1O.[Na+] [ascorbate, sodium ascorbate, reference compound]
[2]; [3]
  effect on the rate of zinc uptake: no effect
[1]; [3]
  effect on the rate of zinc uptake: no effect
